Results reported in PubChem BioAssay (NCI).
Where “and” joins values, the source holds several entries; their conditions need not be identical. Identical values can stand only once.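 Protocol summary: plate cells (96-well), add compound at 5 concentrations, incubate 48 h, interpolate endpoints linearly. GI50 = concentration required for 50% inhibition of growth. TGI is the concentration that stops growth completely.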

Key:
Experiment in all cases: inhibition of tumour cell growth, NCI panel, 48 h
ACHN renal = system: ACHN renal
HCT-15 colon = system: HCT-15 colon
HOP-92 NSCLC = system: HOP-92 NSCLC
K-562 leukemia = system: K-562 leukemia
MDA-MB-435 = system: MDA-MB-435
OVCAR-8 ovarian = system: OVCAR-8 ovarian
SF-268 CNS = system: SF-268 CNS
SF-539 CNS = system: SF-539 CNS
SNB-75 CNS = system: SNB-75 CNS
UACC-257 melanoma = system: UACC-257 melanoma

SMILES	GI50 (ACHN renal)	TGI (ACHN renal)	GI50 (HCT-15 colon)	TGI (HCT-15 colon)	GI50 (HOP-92 NSCLC)	TGI (HOP-92 NSCLC)	GI50 (K-562 leukemia)	TGI (K-562 leukemia)	GI50 (MDA-MB-435)	TGI (MDA-MB-435)	GI50 (OVCAR-8 ovarian)	TGI (OVCAR-8 ovarian)	GI50 (SF-268 CNS)	TGI (SF-268 CNS)	GI50 (SF-539 CNS)	TGI (SF-539 CNS)	GI50 (SNB-75 CNS)	TGI (SNB-75 CNS)	GI50 (UACC-257 melanoma)	TGI (UACC-257 melanoma)
O=C(CN1CCOCC1)Nc1ccc(Cn2nnc3c2C(=O)c2nnn(Cc4ccc(NC(=O)CN5CCOCC5)cc4)c2C3=O)cc1	4.01 µM	20.2 µM	7.42 µM	> 100 µM	0.822 µM	2.34 µM	0.745 µM	> 100 µM	0.177 µM	0.329 µM	0.358 µM	1.33 µM	0.334 µM	1.94 µM	0.304 µM	1.07 µM	1.66 µM	3.04 µM	0.253 µM	0.624 µM
O=C(O)CCCCC(CCSCc1ccccc1)SCc1ccccc1 (configuration not stated)	51.1 µM	> 100 µM	33.1 µM	> 100 µM	29.3 µM	> 81.6 µM	44.5 µM	> 100 µM	> 73.7 µM	> 100 µM	> 63.6 µM	> 100 µM	> 67.2 µM	> 100 µM	66.5 µM	> 100 µM	> 100 µM	> 100 µM	> 67.1 µM	> 100 µM
COc1cc2c3c(n(C)c(=O)c2cc1OC)-c1cc2c(cc1/C3=C\CCCN1C(=O)c3ccccc3C1=O)OCO2	8.67 µM	> 40 µM	> 40 µM	> 40 µM	2.12 µM	13.4 µM	15 µM	> 40 µM	> 40 µM	> 40 µM	23.8 µM	> 40 µM	14.2 µM	> 40 µM	8.99 µM	> 40 µM	27.8 µM	> 40 µM	> 40 µM	> 40 µM
O=C1CNCCCN2CCN(CCCNCC(=O)Nc3ccc(cc3)S(=O)(=O)c3ccc(cc3)NC(=O)CNCCCN3CCN(CCCNCC(=O)Nc4ccc(cc4)S(=O)(=O)c4ccc(cc4)N1)CC3)CC2		> 61.5 µM		> 54.8 µM		60.6 µM		> 58.5 µM		> 58.8 µM		> 56.9 µM		> 55.4 µM		44.6 µM		> 100 µM		32.7 µM
CC1CCC2(C(=O)O)CCC3(C)C(=CCC4C5(C)CC(O)C(O)C(C)(CO)C5C(O)CC43C)C2C1C (configuration not stated)		> 100 µM		> 100 µM		46.3 µM		> 100 µM		> 100 µM		42.6 µM		> 87.2 µM		75.9 µM		79.7 µM		> 100 µM
N#Cc1ccc(C#Cc2ccccc2C#CCCCCO)cc1	19.1 µM	33.2 µM	15.6 µM	29 µM	17.7 µM	34.6 µM	21.7 µM	46.1 µM	18.9 µM	35.6 µM	18.6 µM	35.5 µM	18.9 µM	40.7 µM	17.5 µM	32 µM	42.2 µM	> 100 µM	17.3 µM	31.4 µM
Cn1c(N2NC(=O)C(N=Nc3ccc(S(N)(=O)=O)cc3)C2=O)nc(-c2ccco2)c(C#N)c1=O (configuration not stated)	15.6 µM	> 50 µM	8.44 µM	22.1 µM	25.5 µM	> 50 µM	5.69 µM	31.2 µM	32.3 µM	> 50 µM	> 50 µM	> 50 µM	15.6 µM	> 50 µM	> 50 µM	> 50 µM	39.2 µM	> 50 µM	> 50 µM	> 50 µM
Cc1ccc(S(=O)(=O)N(CCOc2ccc(/C(N)=N/Cl)cc2)CCOc2ccc(/C(N)=N\Cl)cc2)cc1	> 100 µM	> 100 µM	> 100 µM	> 100 µM	17.2 µM	89.3 µM	4.17 µM	24 µM	21.8 µM	> 100 µM	12 µM	> 100 µM	5.76 µM	20 µM	11 µM	27.2 µM	4.92 µM	20.1 µM	23.3 µM	90.5 µM
O=[N+]([O-])/C=C\c1ccc(Cl)c(Cl)c1	3.47 µM	13.3 µM	3.23 µM	17 µM	1.87 µM	5.01 µM	0.379 µM	5.08 µM	1.27 µM	2.86 µM	1.94 µM	4.16 µM	2.42 µM	6.97 µM	3.83 µM	18.2 µM	4.47 µM	17.5 µM	1.4 µM	2.89 µM
N#C/C(=C1C=C/C(=N/O)C(Br)=C/1)c1ccccc1	1.89 µM	14.7 µM	2.41 µM	> 100 µM	0.385 µM	3.77 µM	0.878 µM	12.6 µM	0.495 µM	2.32 µM	2.61 µM	8.41 µM	2.18 µM	11.7 µM	1.09 µM	2.75 µM	3.42 µM	22.6 µM	6.61 µM	55.9 µM
O=C1c2c(c3c4ccccc4n(CCCCCCBr)c3c3[nH]c4ccccc4c23)C(=O)N1O	2.61 µM	11.1 µM	2.64 µM	11.2 µM	2.22 µM	6.7 µM	2.8 µM	10.2 µM	1.98 µM	4.97 µM	3.11 µM	10.3 µM	3.48 µM	18.3 µM	1.78 µM	3.77 µM	3.14 µM	16.5 µM	2.74 µM	6.04 µM
CN(C)CCC(=O)N1C/C(=C/c2ccccc2)C(=O)/C(=C\c2ccccc2)C1		5.5 µM		3.91 µM		16.6 µM		0.973 µM		3.85 µM		7.58 µM		9.22 µM		11.9 µM		15.1 µM		4.61 µM
COc1cccc(/C=N/NC(=O)c2ccccc2Nc2ccnc(C(F)(F)F)c2)c1O	0.279 µM	> 100 µM	0.201 µM	> 100 µM	0.342 µM	21.5 µM	0.369 µM	12.3 µM	1.26 µM	> 100 µM	0.319 µM	> 38 µM	0.488 µM	> 51.1 µM	0.583 µM	11.3 µM	1.62 µM	> 76.5 µM	0.346 µM	5.88 µM
O=NN(Cc1ccc(Cl)cc1)C(C(=O)O)c1ccccc1 (configuration not stated)		> 100 µM		> 100 µM		> 100 µM		> 100 µM		> 100 µM		> 100 µM		> 100 µM		> 100 µM		> 100 µM		> 100 µM
CCc1c(Oc2ccc(C(C)=O)cc2)c2ccccc2[nH]c1=O	16.7 µM	63.5 µM	16.4 µM	96.8 µM	1.67 µM	11.7 µM	18.8 µM	> 76.9 µM	16.5 µM	> 100 µM	19.1 µM	53.4 µM	18.1 µM	61 µM	15.7 µM	38.6 µM	> 26.9 µM	> 100 µM	14.5 µM	55.1 µM
CCOC(=O)/C=C(/C(=O)OCC)n1cc(Cl)c(=O)n(CC(=O)OCC)c1=O	2.55 µM	7.35 µM and 6.22 µM	19 µM	10.5 µM and 40.1 µM		9.3 µM	4.24 µM	25 µM and > 100 µM		9.95 µM and 36.6 µM	12.6 µM	8.43 µM and 28.4 µM	24 µM	12.2 µM and 41.4 µM	16.9 µM	9.69 µM and 32.7 µM	16.6 µM	13 µM and 33.6 µM	20.7 µM	25 µM and 57.9 µM
CCNCCNc1cc(-c2ccc(C(=O)OC)cc2)c(C#N)c2nc3ccccc3n12	1.66 µM	3.3 µM	1.47 µM	4.65 µM	2.23 µM	4.36 µM	1.23 µM	3.2 µM	1.71 µM	3.47 µM	2.13 µM	5.32 µM	2.54 µM	16.2 µM	1.74 µM	3.33 µM	1.53 µM	3.17 µM	1.87 µM	3.71 µM
Cc1cc(I)cc(CNCCCN2CCSCC2)c1O	17.5 µM	33.8 µM	17.7 µM	35.9 µM	7.57 µM	22.3 µM	8.4 µM	26.1 µM	13.6 µM	26.6 µM	17.4 µM	34 µM	17.2 µM	36.4 µM	16.8 µM	30.8 µM	13.7 µM	28.8 µM	16.6 µM	34.1 µM
CN(C)CCNc1cc(-c2ccccc2)nc2ccccc12	4.42 µM	38.9 µM	4.48 µM	62.5 µM	3.21 µM	21.3 µM	2.6 µM	12.3 µM	6.12 µM	20.6 µM	4.1 µM	22 µM	4.98 µM	22.7 µM	8.22 µM	22.7 µM	9.57 µM	23.4 µM	11.5 µM	26.7 µM
Cc1cc(N(CCOS(C)(=O)=O)CCOS(C)(=O)=O)ccc1C=Nc1ccc(-c2nc(Cc3ccccc3)sc2C)cc1		3.51 µM		35.2 µM		25.4 µM		65.5 µM		26.6 µM		41.8 µM		20.4 µM		14.8 µM		12.3 µM		28.4 µM
O=c1oc2ccc(F)cc2c(=O)n1-c1ccc(F)cc1F	2.71 µM	8.63 µM	3.36 µM	17.5 µM	1.6 µM	4.68 µM	3.11 µM	> 100 µM	3.21 µM	14.6 µM	3.39 µM	91.6 µM	3.34 µM	52.1 µM	3.31 µM	13.8 µM	1.58 µM	5.43 µM	2.29 µM	7.15 µM
COc1ccc(C2=NN(C(=O)c3cc(OC)c(OC)c(OC)c3)C(c3ccc(C#N)cc3)C2)cc1OC (configuration not stated)	1.45 µM	> 66.5 µM	1.48 µM	> 64.8 µM	0.113 µM	0.792 µM	0.889 µM	> 100 µM	0.334 µM	1.24 µM	3.26 µM	> 42.7 µM	2.52 µM	> 66.6 µM	0.882 µM		0.586 µM	19.9 µM	6.4 µM	> 53.2 µM
O=C(NCCOCCOCCNc1cccc2c1C(=O)N(C1CCCNC1=O)C2=O)c1cc2c(o1)C(=O)c1ccccc1C2=O (configuration not stated)	2.29 µM	6.5 µM	2.06 µM	5.5 µM	3.31 µM	13.6 µM	2.75 µM	11.1 µM	1.62 µM	3.05 µM	2.31 µM	10.6 µM	2.39 µM	6.35 µM	1.75 µM	3.18 µM	2.65 µM	4.61 µM	1.45 µM	2.89 µM
